Measured values taken from PMC8576328, “Broad-Spectrum Inhibitor of Bacterial Polyphosphate Homeostasis Attenuates Virulence Factors and Helps Reveal Novel Physiology of Klebsiella pneumoniae and Acinetobacter baumannii” (Frontiers in Microbiology, 2021).

Columns and labels:
K. pneumoniae PPK1 (KP) [1] = target: T1, K. pneumoniae PPK1 (KP) (Klebsiella pneumoniae, UniProt A6TCB5); assay: biochemical; parameters: gene ppk
PPK1A = target: T2, PPK1A (Acinetobacter baumannii, UniProt A0A0D5YJ41); assay: polyP synthesis kinetics with purified enzyme, varying ATP; assay type: biochemical
T2 construct: gene ppk1; AB5075 PPK1A (ABUW_2072), C-terminal His6-tag

PPK1B = target: T3, PPK1B (Acinetobacter baumannii, UniProt A0A0D5YLD5); assay: as above; assay type: biochemical
T3 construct: gene ppk2; AB5075 PPK1B (ABUW_2907), N-terminal His6-tag

K. pneumoniae PPK1 (KP) [2] = target: T1, K. pneumoniae PPK1 (KP); assay: polyP synthesis, toluidine blue A630/[…]; assay type: biochemical; parameters: gene ppk; codon-optimised gene in pET28a, C-terminal His6-tag, E. coli BL21, Ni-NTA purified

T1 sequence (A6TCB5 entry or part of it): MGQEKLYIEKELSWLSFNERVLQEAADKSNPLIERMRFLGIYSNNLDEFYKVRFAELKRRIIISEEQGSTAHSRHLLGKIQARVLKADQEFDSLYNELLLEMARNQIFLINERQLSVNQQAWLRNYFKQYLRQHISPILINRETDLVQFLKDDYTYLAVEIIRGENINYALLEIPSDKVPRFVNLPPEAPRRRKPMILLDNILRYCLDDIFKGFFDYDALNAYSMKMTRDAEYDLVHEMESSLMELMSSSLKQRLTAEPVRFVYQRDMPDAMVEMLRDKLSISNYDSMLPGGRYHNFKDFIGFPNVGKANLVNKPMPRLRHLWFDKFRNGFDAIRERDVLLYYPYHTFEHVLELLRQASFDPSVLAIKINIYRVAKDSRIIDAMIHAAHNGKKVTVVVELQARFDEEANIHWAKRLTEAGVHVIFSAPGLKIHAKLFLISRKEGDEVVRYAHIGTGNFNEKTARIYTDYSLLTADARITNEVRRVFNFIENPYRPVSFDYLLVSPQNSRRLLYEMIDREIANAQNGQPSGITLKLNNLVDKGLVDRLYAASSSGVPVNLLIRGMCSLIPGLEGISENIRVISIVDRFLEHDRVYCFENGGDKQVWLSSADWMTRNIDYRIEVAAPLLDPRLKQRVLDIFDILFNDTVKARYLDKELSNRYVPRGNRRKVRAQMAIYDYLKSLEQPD
T2 sequence (A0A0D5YJ41 entry or part of it): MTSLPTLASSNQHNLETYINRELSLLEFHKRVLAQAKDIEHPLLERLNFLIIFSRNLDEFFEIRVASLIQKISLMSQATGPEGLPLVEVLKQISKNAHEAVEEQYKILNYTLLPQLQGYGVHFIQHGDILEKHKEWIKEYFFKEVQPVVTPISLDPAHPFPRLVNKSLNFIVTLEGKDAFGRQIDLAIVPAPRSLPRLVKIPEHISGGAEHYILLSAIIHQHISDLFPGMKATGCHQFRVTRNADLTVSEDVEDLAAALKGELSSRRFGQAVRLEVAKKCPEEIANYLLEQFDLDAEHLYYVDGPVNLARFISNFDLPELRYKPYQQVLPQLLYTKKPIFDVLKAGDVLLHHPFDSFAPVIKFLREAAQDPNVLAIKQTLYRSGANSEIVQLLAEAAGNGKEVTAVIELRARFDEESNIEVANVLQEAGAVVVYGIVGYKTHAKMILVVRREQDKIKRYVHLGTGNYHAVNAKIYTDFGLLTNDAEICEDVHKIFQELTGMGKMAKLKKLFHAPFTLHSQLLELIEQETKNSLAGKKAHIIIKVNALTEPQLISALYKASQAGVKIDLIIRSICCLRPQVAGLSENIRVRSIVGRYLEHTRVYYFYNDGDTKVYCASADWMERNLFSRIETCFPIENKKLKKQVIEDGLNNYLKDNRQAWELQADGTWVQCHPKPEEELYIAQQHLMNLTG
T3 sequence (A0A0D5YLD5 entry or part of it): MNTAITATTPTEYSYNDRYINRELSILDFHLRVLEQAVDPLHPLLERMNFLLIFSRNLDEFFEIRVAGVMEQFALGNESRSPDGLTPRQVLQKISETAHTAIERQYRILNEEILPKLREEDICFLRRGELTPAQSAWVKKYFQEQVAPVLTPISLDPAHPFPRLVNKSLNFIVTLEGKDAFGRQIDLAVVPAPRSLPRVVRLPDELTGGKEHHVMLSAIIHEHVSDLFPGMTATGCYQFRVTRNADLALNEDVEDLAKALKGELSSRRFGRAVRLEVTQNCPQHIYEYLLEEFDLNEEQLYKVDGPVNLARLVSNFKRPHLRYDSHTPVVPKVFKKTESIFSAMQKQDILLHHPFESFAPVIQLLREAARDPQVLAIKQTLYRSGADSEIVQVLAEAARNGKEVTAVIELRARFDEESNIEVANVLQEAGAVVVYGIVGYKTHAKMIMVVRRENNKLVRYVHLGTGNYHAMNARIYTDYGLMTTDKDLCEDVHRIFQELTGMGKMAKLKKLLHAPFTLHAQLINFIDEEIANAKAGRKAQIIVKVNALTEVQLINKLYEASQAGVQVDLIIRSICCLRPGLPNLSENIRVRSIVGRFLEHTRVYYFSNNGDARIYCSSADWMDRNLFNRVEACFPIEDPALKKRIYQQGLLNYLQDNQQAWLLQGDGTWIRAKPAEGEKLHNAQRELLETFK

## Nc1ncnc2c1ncn2[C@@H]1O[C@H](COP(=O)(O)OP(=O)(O)OP(=O)(O)O)[C@@H](O)[C@H]1O [ATP]
K. pneumoniae PPK1 (KP) [1]
  Ki: 9.33 ± 1.69 mM

## O=C1OC2(c3ccccc31)c1ccc(O)c(O)c1Oc1c2ccc(O)c1O [gallein]
PPK1A
  polyP synthesis kinetics with purified enzyme, varying ATP: Both PPK1A and PPK1B were capable of in vitro polyP synthesis, and also exhibited inhibition by gallein
PPK1B
  polyP synthesis kinetics with purified enzyme, varying ATP: Both PPK1A and PPK1B were capable of in vitro polyP synthesis, and also exhibited inhibition by gallein
K. pneumoniae PPK1 (KP) [2]
  IC50: 0.0165 mM
